Measured values reported in US20230227566A1, “AMHRII-BINDING COMPOUNDS FOR PREVENTING OR TREATING LUNG CANCERS” (GAMAMABS PHARMA, priority 2017, published 2023).

What was measured:
[1] = tolerability (body weight, clinical observations) in study XTS-1526
Procedure: Adverse effect of the different treatments was determined as: • Relative Body Weight (RBW) will be calculated for each measurement by dividing the body weight by the body weight at the start of treatment. • Individual Body weight loss percent (% BWL)=100−(BWx/BW0×100), where BWx is the BW at any day during the treatment and BW0 is the BW on the 1st day of treatment.
Mice were observed every day for physical appearance, behavior and clinical changes.
Animals were sacrificed based on the following criteria: • Body weight loss (BWL)≥20% compared to the 1st day of treatment for 48 consecutive hours (3 measurements). • General alteration of behaviour or clinical signs. • Tumor volume ≥2000 mm^3.
Mean Body weight loss percent (% BWL)=100−(mean BWx/mean BW0x 100), where BWx is the mean BW at any day during the treatment and BW0 is the mean BW on the 1st day of treatment.

[2] = tested on: SC131 patient-derived non-small-cell lung xenograft; experiment: antitumor efficacy study XTS-1526 in SC131 patient-derived xenograft; details: for CR (complete regression), number of mice / TFS (Tumor Free Survivor), number of mice / TS (Tumor Stabilization), number of mice / PR (partial regression), number of mice: 9 mice per group; for antitumor efficacy compared with control group 1 (in words): Mann-Whitney test vs vehicle; for TGDI (Tumor Growth Delay Index): TGD treated/TGD control, same regimens; for TS (Tumor Stabilization), number of mice: constant tumor size during at least 3 consecutive measurements; for Best T/C%: day of best T/C D16 (G6: D11); for T/C % at day 16: mean tumor volume treated/control x100, day 16; for median TGD x 5: time to reach 5x D0 tumor volume, GM102 20 mg/kg IV 2qwk, docetaxel 20 mg/kg slow IV D0, cisplatin 5 + gemcitabine 100 mg/kg IP qwk; for PR (partial regression), number of mice: tumor size lower than initial during at least 3 consecutive measurements;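 as to all read-outs here: subcutaneous tumor fragments grafted in mice, tumor volume from caliper diameters (length × width²/2) taken three times weekly during treatment, each treated group compared against vehicle controls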
Description: Fifty-four (54) mice with a subcutaneously growing SC131 tumor (P22.1.3/0) between 62.5 and 220.5 mm^3 were allocated to treatment when the mean and median tumor volume reached 130.76 and 126.00 mm^3 respectively.
Tumors of the same passage were transplanted subcutaneously onto 3-24 mice (donor mice, passage (n−1)). When these tumors reached 700 to 2000 mm^3, donor mice were sacrificed by cervical dislocation, tumors were aseptically excised and dissected. After removing necrotic areas, tumors were cut into fragments measuring approximately 20 mm^3 and transferred in culture medium before grafting.
Eighty-nine (89) mice were anaesthetized with 100 mg/kg ketamine hydrochloride (batch 5D92—exp: 03-2017, Virbac) and 10 mg/kg xylazine (batch KP0AX9X, Bayer), and then skin was aseptized with a chlorhexidine solution, incised at the level of the interscapular region, and a 20 mm^3 tumor fragment was placed in the subcutaneous tissue. Skin was closed with clips.
Treatments were randomly attributed to boxes housing up to 5 mice and were initiated 18 days post implantation of the tumor (60% inclusion rate with staggered inclusion). The study was staggered-included with 5 mice included per group first, then 4 mice included per group 2 days later. The study was terminated following 31 days after the start of treatment.
For the additional groups 7 and 8, tumor size was higher and more heterogeneous. Animals were included 32 days post implantation.
Tumor volume was evaluated by measuring tumor diameters, with a caliper, three times a week during the treatment period. The formula TV (mm^3)=[length (mm)×width (mm)^2]/2 was used, where the length and the width are the longest and the shortest diameters of the tumor, respectively.
For the groups 1 to 6, each group initially included 9 mice. For the groups 7 and 8, each group initially included 8 mice.
Individual tumor growth delays (TGD) was calculated as the time in days required for individual tumors to reach 3- to 5-fold the initial tumor volume.
The tumor growth delay index (TGDI) was calculated as the median growth delay in the treated group divided by the median growth delay in the control group.
The percentage ratio between the mean tumor volume of a treated group (T) and the mean tumor volume of the control group (C) was calculated.
Statistical analysis was done for each measurement by Mann-Whitney non parametric comparison test. Each treated group was compared with control group.
Tumor Stabilization (TS) was defined as the number of mice presenting a constant tumor size during at least 3 consecutive measurements.
Partial tumor Regression (PR) was defined as the number of mice presenting a tumor size lower than initial tumor size during at least 3 consecutive measurements.

SC131 tumor model = experiment: response of SC131 tumor model to standard-of-care agents; format: in vivo, mouse; details: data obtained on swiss nude mice
Description: Human tumor samples of various histological origins were obtained with informed consent from patients treated at cancer centers and established as transplantable xenografts in immunodeficient mice. The grafted samples are residual material from primary tumors or metastases obtained before or after treatment. These patient-derived xenograft (PDX) models have been established without prior in vitro culture and have been studied for histology, cytogenetics, genetic and other biological markers, and for their response to standard-of-care (SOC) therapies.
SC131 is low responder to docetaxel and to the combination cisplatin/gemcitabine, and no responder to the other agents tested (data obtained on swiss nude mice).

[3] = target: T1, human Anti-Mullerian Hormone type II Receptor (AMHRII) (human, UniProt Q16671 18-573); experiment: immunohistochemistry (immunoperoxidase, biotinylated antibody) on AMHR2-transfected COV434 cells
T1 construct: also called AMHR2; MISRII
T1 sequence: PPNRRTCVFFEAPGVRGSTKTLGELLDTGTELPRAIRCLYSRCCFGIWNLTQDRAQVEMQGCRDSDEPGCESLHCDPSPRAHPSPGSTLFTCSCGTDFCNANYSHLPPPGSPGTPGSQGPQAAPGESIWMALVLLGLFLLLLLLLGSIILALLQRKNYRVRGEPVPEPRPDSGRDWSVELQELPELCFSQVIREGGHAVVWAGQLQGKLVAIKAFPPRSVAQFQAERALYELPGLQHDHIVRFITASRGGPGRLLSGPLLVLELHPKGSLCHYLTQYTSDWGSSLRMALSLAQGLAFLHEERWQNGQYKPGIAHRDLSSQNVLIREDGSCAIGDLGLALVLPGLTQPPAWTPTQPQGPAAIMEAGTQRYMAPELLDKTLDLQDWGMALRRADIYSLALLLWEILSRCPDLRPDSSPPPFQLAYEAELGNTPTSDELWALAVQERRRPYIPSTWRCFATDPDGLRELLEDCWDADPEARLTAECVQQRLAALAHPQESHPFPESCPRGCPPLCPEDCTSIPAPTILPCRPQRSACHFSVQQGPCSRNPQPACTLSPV

[4] = tested on: AMHR2-transfected human tumor cell lines; details: cited from earlier work
[5] = tested on: LXFE2226 squamous non-small cell lung cancer model tumor xenografts; experiment: antitumor efficacy in LXFE2226 tumor xenografts; format: in vivo, mouse
Description: Tumor fragments were obtained from xenografts in serial passage in nude mice. After removal from donor mice, tumors were cut into fragments (3-4 mm edge length) and placed in PBS containing 10% penicillin/streptomycin. Recipient animals were anesthetized by inhalation of isoflurane and received unilateral or bilateral tumor implants subcutaneously in the flank.
LXFE2226 squamous non-small cell lung cancer model tumor xenografts were implanted subcutaneously with one tumor per mouse (NMRI-Foxn1^nu from Charles River). The experiment consisted of two groups of mice from which three of them were euthanized on day 15 for detecting membranous AMHRII expression by flow cytometry. The first group was a vehicle control group and the second group received the investigational antibody GM102, which was administered intraperitoneally (i.p.) twice weekly at a dose level of 20 mg/kg.
Antitumor efficacy was evaluated as minimum T/C value by comparison of group median relative tumor volumes (RTVs) on the days where the optimal efficacy was reached. The experiment was terminated on day 43 after a two-week dosing-free observation period.

AMHRII = target: T2, AMHRII (Homo sapiens, UniProt Q16671); experiment: binding of 3C23K antibody to AMHRII (Kd)
T2 sequence (Q16671 18-573): T1 sequence

CC(=O)O[C@@]12CO[C@@H]1C[C@H](O)[C@@]1(C)C(=O)[C@H](O)C3=C(C)[C@@H](OC(=O)[C@H](O)[C@@H](NC(=O)OC(C)(C)C)c4ccccc4)C[C@@](O)([C@@H](OC(=O)c4ccccc4)[C@H]21)C3(C)C [Docetaxel]
mice that had to be sacrificed before the end of the study ([1]; despite DietGel, 9 mice per group (groups 7, 8: 8)): 4 | maximum individual body weight loss ([1]; mouse, in vivo): 23.8% | maximum mean body weight loss ([1]; mouse, in vivo): 17.0% | CR (complete regression), number of mice [2]: 0 | TFS (Tumor Free Survivor), number of mice [2]: 0 | antitumor efficacy compared with control group 1 (in words) [2]: strong and statistically significant | TGDI (Tumor Growth Delay Index) [2]: >2.71 | TGDI (Tumor Growth Delay Index) ([2]; listed as docetaxel): > 2.71 | TS (Tumor Stabilization), number of mice [2]: 7 | TS (Tumor Stabilization), number of mice ([2]; listed as docetaxel): 7/9 | Mann-Whitney analysis on tumor volume vs vehicle, day 4 ([2]; day 4): ** (P < 0.01) | Mann-Whitney analysis on tumor volume vs vehicle, day 7 ([2]; day 7): *** (P < 0.001) | Mann-Whitney analysis on tumor volume vs vehicle, day 9 ([2]; day 9): *** (P < 0.001) | Mann-Whitney analysis on tumor volume vs vehicle, day 11 ([2]; day 11): *** (P < 0.001) | Mann-Whitney analysis on tumor volume vs vehicle, day 14 ([2]; day 14): *** (P < 0.001) | Mann-Whitney analysis on tumor volume vs vehicle, day 16 ([2]; day 16): *** (P < 0.001) | Best T/C% [2]: 11.00% | Best T/C% ([2]; listed as docetaxel): 11.00% | T/C % at day 16 [2]: 11.00% | median TGD x 5 [2]: >28 days | PR (partial regression), number of mice [2]: 2 | PR (partial regression), number of mice ([2]; listed as docetaxel): 2/9 | response of SC131 to the agent (in words) (SC131 tumor model): low responder

B1: 3C23K anti-AMHRII monoclonal antibody (antibody, human IgG1, kappa, V domains shown)
VH: QVRLVQSGAEVKKPGASVKVSCKASGYTFTSYHIHWVRQAPGQRLEWMGWIYPGDDSTKYSQKFQGRVTITRDTSASTAYMELSSLRSEDTAVYYCTRGDRFAYWGQGTLVTVSS
VL: DIQMTQSPSTLSASVGDRVTITCRASSSVRYIAWYQQKPGKAPKLLTYPTSSLKSGVPSRFSGSGSGTEFTLTISSLQPDDFATYYCLQWSSYPWTFGGGTKVEIKR
notes: Humanized mAb; GM102 is described as a low fucose form; also called GM102; 3C23K-AF
binding result [3]: binds

B2: GM102: humanized anti-AMHRII (AMHR2) monoclonal antibody, low fucose; VH SEQ ID NO 19, VL SEQ ID NO 36 (antibody, V domains shown)
VH: B1 VH
VL: DIQMTQSPSTLSASVGDRVTITCRASSSVRYIAWYQQKPGKAPKLLTYPTSSLKSGVPSRFSGSGSGTEFTLTISSLQPDDFATYYCLQWSSYPWTFGGGTKVEIK
modifications: low fucose; Synthetic 3C23K/3C23; Synthetic 3C23K
efficacy in combination with carboplatin and paclitaxel (in words) ([4]; Jacquet A., Cancer Res, 2012): synergistic | antitumor efficacy (in words) ([4]; mouse, in vivo): display antitumor efficacy | mice found dead ([1]; 9 mice per group (groups 7, 8: 8)): Mouse #27 was found dead on day 27 | maximum mean body weight loss ([1]; SC131-bearing nude mice (cachectic tumor), day of maximum differs per group): 9.8% | maximum individual body weight loss ([1]; SC131-bearing nude mice, day of maximum differs per group): 16.8% | tolerability (in words) ([1]; mouse, in vivo, iv, 20 mg/kg): well tolerated | tumor volume at Day 28 vs vehicle (in words) ([5]; Day 28, p<0.001): drastically reduction of the tumor volume | anti-tumor activity (in words) ([5]; GM102 20 mg/kg i.p. twice weekly, NMRI-Foxn1nu mice): strong anti-tumor activity | Kd (AMHRII): 0.0553 nM | CR (complete regression), number of mice [2]: 0 | TFS (Tumor Free Survivor), number of mice [2]: 0 | tumor growth inhibition ([2]; GM102 alone, did not reach statistical significance): 25% | antitumor efficacy compared with control group 1 (in words) [2]: did not demonstrate any antitumor efficacy | TGDI (Tumor Growth Delay Index) [2]: 1.33 | TS (Tumor Stabilization), number of mice [2]: 0 | Best T/C% [2]: 74.68% | T/C % at day 16 [2]: 74.68% | median TGD x 5 [2]: 13.70 days | PR (partial regression), number of mice [2]: 0
